# In patent US20110124661A1, “OXAZOLOBENZIMIDAZOLE DERIVATIVES” (MERCK SHARP & DOHME CORP., priority 2008, published 2011):
# Target: T1, recombinant human mGluR2 (Homo sapiens, UniProt Q14416)
# T1 construct: expressed in transfected cells
# Assay: FLIPR Ca2+ mobilization assay, potentiation of glutamate response
# Assay type: cell-based
# Conditions: potentiation after EC20 glutamate (900 nM); CHO dhfr- cells expressing human mGluR2 and Gα16; read-out: Representative FLIPR EC50 Values
# Method: Inhibition constants are determined as follows. The compounds of the present invention may be tested in a […] (FLIPR) based assay. This assay is a common functional assay to monitor Ca^2+ mobilization in whole cells expressing recombinant receptor coupled with a promiscuous G-protein. CHO dhfr-cells stably expressing recombinant human mGluR2 and Gα16 loaded with Fluo-4 AM (Invitrogen, Carlsbad Calif.) are treated with dose responses of compounds and the Ca^2+ response is monitored on a FLIPR384 (Molecular Devices, Sunnydale Calif.) for agonist activity. The potentiation response is monitored after a subsequent addition of an EC20 concentration of glutamate (900 nM). The maximum calcium response at each concentration of compound for agonist or potentiation are plotted as dose responses and the curves are fitted with a four parameters logistic equation giving EC50 and Hill coefficient using the iterative non linear curve fitting software program.
# T1 sequence (Q14416 19-872): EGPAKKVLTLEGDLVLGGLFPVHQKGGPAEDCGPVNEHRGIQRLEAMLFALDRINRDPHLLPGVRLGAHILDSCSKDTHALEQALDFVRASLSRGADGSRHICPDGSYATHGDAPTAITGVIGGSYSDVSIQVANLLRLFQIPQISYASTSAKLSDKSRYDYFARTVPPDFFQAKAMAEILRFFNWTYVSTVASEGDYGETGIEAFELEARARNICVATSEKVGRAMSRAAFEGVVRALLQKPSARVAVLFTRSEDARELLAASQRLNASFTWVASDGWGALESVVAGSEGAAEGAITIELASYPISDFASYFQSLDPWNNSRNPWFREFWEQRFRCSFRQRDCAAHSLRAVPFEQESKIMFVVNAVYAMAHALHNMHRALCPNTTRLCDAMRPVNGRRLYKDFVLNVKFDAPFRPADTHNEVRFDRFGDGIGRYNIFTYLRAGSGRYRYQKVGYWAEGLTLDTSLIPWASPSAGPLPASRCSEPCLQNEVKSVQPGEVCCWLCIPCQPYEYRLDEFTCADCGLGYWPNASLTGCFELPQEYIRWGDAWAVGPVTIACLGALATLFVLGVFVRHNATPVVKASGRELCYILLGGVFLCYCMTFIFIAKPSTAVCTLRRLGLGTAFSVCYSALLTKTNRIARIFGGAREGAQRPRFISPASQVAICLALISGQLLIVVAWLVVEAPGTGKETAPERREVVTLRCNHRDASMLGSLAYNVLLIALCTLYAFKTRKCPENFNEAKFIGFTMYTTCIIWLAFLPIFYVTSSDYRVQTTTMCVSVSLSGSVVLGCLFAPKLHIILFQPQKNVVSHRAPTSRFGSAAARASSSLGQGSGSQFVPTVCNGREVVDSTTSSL
row,Compound,EC50
1,"CC(C)(C)c1ccc(OCC2Cn3c(nc4cccnc43)O2)cc1 (racemic) [Example 2-16, (RS)-2-[(4-tert-butylphenoxy)methyl]-2,3-dihydro[1,3]oxazolo[2′,3′:2,3]imidazo[4,5-b]pyridine]",0.261 µM
2,"CC(C)(C)c1ccc(OC[C@@H]2Cn3c(nc4cc(C#N)ccc43)O2)cn1 [Example 1-6, (2S)-2-{[(6-tert-butylpyridin-3-yl)oxy]methyl}-2,3-dihydro[1,3]oxazolo[3,2-a]benzimidazole-7-carbonitrile]",0.028 µM
3,"CC(C)(C)c1cc(OC[C@@H]2Cn3c(nc4cc(C#N)ccc43)O2)ccn1 [Example 1-12, (2S)-2-{[(2-tert-butylpyridin-4-yl)oxy]methyl}-2,3-dihydro[1,3]oxazolo[3,2-a]benzimidazole-7-carbonitrile]",0.206 µM
4,"CC(C)(C)c1ccc(OC[C@@H]2Cn3c(nc4cc(F)c(F)cc43)O2)cn1 [Example 1-17, (2S)-2-{[(6-tert-bulylpyridin-3-yl)oxy]methyl}-6,7-difluoro-2,3-dihydro[1,3]oxazolo[3,2-a]benzimidazole]",0.058 µM
5,"FC(F)(F)c1ccc(OC[C@@H]2Cn3c(nc4ccccc43)O2)cn1 [Example 1-21, (2S)-2-({[6-(trifluoromethyl)yridine-3-yl]oxy}methyl)-2,3-dihydro[1,3]oxazolo[3,2-a]benzimidazole]",0.507 µM
6,"(2S)-2-{[4-(2,2,2-trifluoro-1,1-dimethylethyl)phenoxy]methyl}-2,3-dihydro[1,3]oxazolo[3′,2′:1,2]imidazo[4,5-c]pyridine [Example 2-8]",0.021 µM
